In PubChem BioAssay AID330 (DTP/NCI, 2004):
Where “and” joins values, the source holds several entries; their conditions need not be identical. Equal entries are not always repeated. Toxic doses and inconclusive results are not listed. Rule for the calls: active = survival T/C of 150% or more; inactive = T/C below 125% in these data.

Test system: P388 leukemia ip, CD2F1 mice, survival T/C
Assay: NCI In Vivo Anticancer Drug Screen. Data for tumor model P388 Leukemia (intraperitoneal) in CD2F1 (CDF1) mice
Conditions: endpoint: median survival time, higher = longer survival
Procedure, shortened: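 Mice carrying the transplanted tumor received test compound or vehicle. Survival was recorded in each group, and the value is the treated-group measurement divided by that of the vehicle-treated control group.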

[1] = dose: 60.0 mg/kg/injection, schedule: Q01DX005 (ip), vehicle: saline with Tween-80
[2] = dose: 120.0 mg/kg/injection, schedule: Q01DX005 (ip), vehicle: saline with Tween-80
[3] = dose: 240.0 mg/kg/injection, schedule: Q01DX005 (ip), vehicle: saline with Tween-80
[4] = dose: 50.0 mg/kg/injection, schedule: Q01DX005 (ip), vehicle: Klucel (hydroxypropylcellulose) (HPC)
[5] = dose: 100.0 mg/kg/injection, schedule: Q01DX005 (ip), vehicle: Klucel (hydroxypropylcellulose) (HPC)
[6] = dose: 200.0 mg/kg/injection, schedule: Q01DX005 (ip), vehicle: Klucel (hydroxypropylcellulose) (HPC)
[7] = dose: 50.0 mg/kg/injection, schedule: Q01DX009 (ip), vehicle: Klucel (hydroxypropylcellulose) (HPC)
[8] = dose: 100.0 mg/kg/injection, schedule: Q01DX009 (ip), vehicle: Klucel (hydroxypropylcellulose) (HPC)
[9] = dose: 200.0 mg/kg/injection, schedule: Q01DX009 (ip), vehicle: Klucel (hydroxypropylcellulose) (HPC)
[10] = dose: 100.0 mg/kg/injection, schedule: Q04DX002 (ip), vehicle: saline with Tween-80
[11] = dose: 200.0 mg/kg/injection, schedule: Q04DX002 (ip), vehicle: saline with Tween-80
[12] = dose: 400.0 mg/kg/injection, schedule: Q04DX002 (ip), vehicle: saline with Tween-80

Measured: T/C

CC(=O)Nc1cc(Cl)c2ncn(C3OC(CO)C(O)C3O)c2n1 (configuration not stated)
inactive: dose: 25.0 mg/kg/injection, schedule: Q04DX003 (ip), vehicle: water 111 % of control | dose: 50.0 mg/kg/injection, schedule: Q04DX003 (ip), vehicle: water 112 % of control | dose: 100.0 mg/kg/injection, schedule: Q04DX003 (ip), vehicle: water 109 % of control | dose: 200.0 mg/kg/injection, schedule: Q04DX003 (ip), vehicle: water 100 % of control | dose: 400.0 mg/kg/injection, schedule: Q04DX003 (ip), vehicle: water 100 % of control

Cc1ccc(Nc2ccc3c4c(cc(=O)n3C)-c3ccccc3C(=O)c24)c(S(=O)(=O)O)c1
inactive: dose: 50.0 mg/kg/injection, schedule: Q01DX009 (ip), vehicle: saline 87 % of control | dose: 100.0 mg/kg/injection, schedule: Q01DX009 (ip), vehicle: saline 91 % of control | dose: 200.0 mg/kg/injection, schedule: Q01DX009 (ip), vehicle: saline 99 % of control | dose: 400.0 mg/kg/injection, schedule: Q01DX009 (ip), vehicle: saline 95 % of control

O=C1CCC(c2nc3ccccc3[nH]2)N1Cc1ccccc1 (configuration not stated)
inactive: [1] 97 % of control | [2] 90 % of control | [3] 89 % of control

COC1CCC(CO)O1 (configuration not stated)
inactive: dose: 50.0 mg/kg/injection, schedule: Q01DX009 (ip), vehicle: suspension in saline 100 % of control | dose: 100.0 mg/kg/injection, schedule: Q01DX009 (ip), vehicle: suspension in saline 108 % of control | dose: 200.0 mg/kg/injection, schedule: Q01DX009 (ip), vehicle: suspension in saline 102 % of control

COC(=O)C1=C[C@H]2O[C@H]2[C@H](O)C1
inactive: dose: 1.5 mg/kg/injection, schedule: Q01DX005 (ip), vehicle: Klucel (hydroxypropylcellulose) (HPC) 100 % of control | dose: 3.0 mg/kg/injection, schedule: Q01DX005 (ip), vehicle: Klucel (hydroxypropylcellulose) (HPC) 106 % of control | dose: 6.0 mg/kg/injection, schedule: Q01DX005 (ip), vehicle: Klucel (hydroxypropylcellulose) (HPC) 101 % of control | dose: 12.0 mg/kg/injection, schedule: Q01DX005 (ip), vehicle: Klucel (hydroxypropylcellulose) (HPC) 100 % of control

COC(=O)C1C(O)CCC2CN3CCc4c([nH]c5cccc(OC)c45)C3CC21 (configuration not stated)
inactive: dose: 25.0 mg/kg/injection, schedule: Q01DX005 (ip), vehicle: Klucel (hydroxypropylcellulose) (HPC) 104 % of control | [4] 105 % of control | [5] 104 % of control | [6] 101 % of control

C/C=C/N=NNc1ccccc1
inactive: dose: 100.0 mg/kg/injection, schedule: Q04DX003 (ip), vehicle: saline + Tween-80 + alcohol 111 % of control | dose: 200.0 mg/kg/injection, schedule: Q04DX003 (ip), vehicle: saline + Tween-80 + alcohol 112 % of control | dose: 400.0 mg/kg/injection, schedule: Q04DX003 (ip), vehicle: saline + Tween-80 + alcohol 106 % of control

Cc1cc(=O)[nH]c2cc(O)c(C(=O)O)cc12
inactive: [4] 93 % of control | [5] 93 % of control | [6] 88 % of control

COC(=O)/C=C1\C(=O)OC(C)(C)C1C (configuration not stated)
inactive: [7] 96 % of control | [8] 98 % of control | [9] 103 % of control

COc1cc(OC)c(N=Cc2ccc(C=Nc3cc(Cl)c(OC)cc3OC)cc2)cc1Cl
inactive: [7] 100 % of control | [8] 89 % of control | [9] 86 % of control

O=c1cc(CC(O)c2ccccc2)c2ccccc2[nH]1 (configuration not stated)
inactive: [10] 95 % of control | [11] 94 % of control | [12] 91 % of control

N#Cc1c(-c2ccccc2)sc2ccccc2c1=O
inactive: dose: 100.0 mg/kg/injection, schedule: Q01DX001 (ip), vehicle: saline with Tween-80 99 % of control | dose: 200.0 mg/kg/injection, schedule: Q01DX001 (ip), vehicle: saline with Tween-80 93 % of control | dose: 400.0 mg/kg/injection, schedule: Q01DX001 (ip), vehicle: saline with Tween-80 98 % of control

COc1ccc(C23OCCN2C(=O)c2ccccc23)cc1 (configuration not stated)
inactive: dose: 60.0 mg/kg/injection, schedule: Q01DX005 (ip), vehicle: saline + Tween-80 + alcohol 99 % of control | dose: 120.0 mg/kg/injection, schedule: Q01DX005 (ip), vehicle: saline + Tween-80 + alcohol 100 % of control | dose: 240.0 mg/kg/injection, schedule: Q01DX005 (ip), vehicle: saline + Tween-80 + alcohol 101 % of control

CC(=O)Oc1ccccc1C(=O)OC(C)c1ccccc1 (configuration not stated)
inactive: [4] 100 % of control | [5] 98 % of control | [6] 104 % of control

O=C1OCCOCCOCCOCCOC(=O)c2cccc1n2
inactive: dose: 100.0 mg/kg/injection, schedule: Q04DX003 (ip), vehicle: Klucel (hydroxypropylcellulose) (HPC) 105 % of control | dose: 200.0 mg/kg/injection, schedule: Q04DX003 (ip), vehicle: Klucel (hydroxypropylcellulose) (HPC) 104 % of control | dose: 400.0 mg/kg/injection, schedule: Q04DX003 (ip), vehicle: Klucel (hydroxypropylcellulose) (HPC) 102 % of control

Nc1ccc(S(N)(=O)=O)cc1
inactive: dose: 12.5 mg/kg/injection, schedule: Q01DX009 (ip), vehicle: saline with Tween-80 105 % of control and 112 % of control | dose: 150.0 mg/kg/injection, schedule: Q01DX009 (ip), vehicle: saline with Tween-80 108 % of control and 97 % of control | dose: 200.0 mg/kg/injection, schedule: Q01DX009 (ip), vehicle: saline with Tween-80 101 % of control and 89 % of control | dose: 400.0 mg/kg/injection, schedule: Q01DX009 (ip), vehicle: saline with Tween-80 98 % of control and 100 % of control

COC(=O)C(N)C(C)O (configuration not stated)
inactive: dose: 12.5 mg/kg/injection, schedule: Q01DX009 (ip), vehicle: water 97 % of control | dose: 25.0 mg/kg/injection, schedule: Q01DX009 (ip), vehicle: water 101 % of control | dose: 50.0 mg/kg/injection, schedule: Q01DX009 (ip), vehicle: water 89 % of control | dose: 100.0 mg/kg/injection, schedule: Q01DX009 (ip), vehicle: water 102 % of control | dose: 200.0 mg/kg/injection, schedule: Q01DX009 (ip), vehicle: water 102 % of control

Cn1c2ccccc2c2nnc(N/N=C/c3ccccn3)nc21
inactive: [10] 98 % of control and 111 % of control and 113 % of control | [11] 106 % of control and 113 % of control and 114 % of control | [12] 106 % of control and 113 % of control | dose: 800.0 mg/kg/injection, schedule: Q04DX002 (ip), vehicle: saline with Tween-80 104 % of control and 114 % of control

O=C1CC(C2OCOC3COCOC32)CC(=O)N1 (configuration not stated)
inactive: dose: 60.0 mg/kg/injection, schedule: Q01DX005 (ip), vehicle: Klucel (hydroxypropylcellulose) (HPC) 111 % of control | dose: 120.0 mg/kg/injection, schedule: Q01DX005 (ip), vehicle: Klucel (hydroxypropylcellulose) (HPC) 109 % of control | dose: 240.0 mg/kg/injection, schedule: Q01DX005 (ip), vehicle: Klucel (hydroxypropylcellulose) (HPC) 100 % of control

O=C1CC2(CCCC2)CC(=O)N1c1ccc(O)c(CN2CCOCC2)c1
inactive: dose: 100.0 mg/kg/injection, schedule: Q04DX002 (ip), vehicle: Klucel (hydroxypropylcellulose) (HPC) 97 % of control | dose: 200.0 mg/kg/injection, schedule: Q04DX002 (ip), vehicle: Klucel (hydroxypropylcellulose) (HPC) 89 % of control | dose: 400.0 mg/kg/injection, schedule: Q04DX002 (ip), vehicle: Klucel (hydroxypropylcellulose) (HPC) 90 % of control

CN(C)c1ccc(Cc2c[nH]c3ccccc3c2=O)cc1
inactive: [1] 94 % of control | [2] 92 % of control | [3] 95 % of control
